# Assays:
# Type in all cases: in vivo
# (NZB×NZW)F1 mice = test: Treatment of established SLE-like disease in (NZB×NZW)F1 mice; conditions: for anti-dsDNA autoantibody O.D. values: sera 1:1250, end of treatment, PBS-treated 0.586±0.1
# Experimental: (§1) Induction and treatment of experimental SLE. In order to induce experimental SLE, BALB/c mice were immunized with 1-2 μg of the human mAb 16/6Id and boosted 3 weeks later. For the prevention of experimental SLE, mice were given hCDR1 or hCDR3 (mCDR1 or revmCDR1 as control peptide in Example 12) intravenously (i.v.) or s.c. concomitant with the immunization, and were injected weekly thereafter for 5 weeks. Treatment of an established disease started three and a half months following disease induction with the 16/6Id, when clinical manifestations were already observed. In Example 12, mice received 10 weekly injections (i.v. or s.c.) of mCDR1 or revmCDR1 at a dose of 100 μg/mouse. Prevention and treatment of SLE-like disease in (NZB×NZW)F1 mice with the hCDR1 or mCDR1 peptide. For prevention of SLE, mice at the age of 2 months, before disease manifestations are observed, were injected s.c. with hCDR1 (or mCDR1 in Example 12, 250 μg/mouse) once a week for 10 weeks. To treat an established disease, mice at the age of 5-7 months were injected with hCDR1 (in Example 12, mCDR1 s.c., 250 μg/mouse) once a week for 10 weeks. Proliferative Responses. PBL were isolated from heparinized venous blood by Ficoll-Hypaque (Pharmacia) density-gradient centrifugation. All assays were performed, in triplicate, in flat-bottomed microtiter plates (Falcon, Becton Dickinson, Oxmard, Calif., USA) in which 2×10^5 PBL were cultured in enriched RPMI-1640 as described (Dayan et al., 2000). The PBL were exposed to various concentrations (0.1-40 μg/well) of the human anti-DNA 16/6Id mAb with and without the addition of the various CDR-based peptides at a concentration of at least 10-fold excess over that of the 16/6Id. Phytohemagglutinin (PHA; 2 μg/well) was used as a control for culture conditions at each experiment. The cultures were incubated in 7.5% CO2 at 37° C. for 6 days. Eighteen hours before the cells were harvested, [^3H]-thymidine (0.5μ Ci of 5 Ci/mmol) (Nuclear Research Center, Negev, Israel) was added to all cultures. Results are expressed as the mean thymidine incorporation in counts per minute (CPM) of triplicate culture±SD, or as stimulation index (S.I.; the ratio of mean CPM at the optimal concentration of the human 16/6Id to the mean CPM in the presence of medium alone). A S.I.≧2 was considered a positive response (Dayan et al., 2000). Inhibition (the ratio of mean CPM in the presence of the 16/6Id and various CDR-based peptides to the mean CPM with the 16/6Id without the CDR-based peptide) above 50% was considered positive. Induction of Cytokine Production. Mice that were immunized with the human 16/6Id mAb and either treated or not with the CDR-based peptide, were killed at different periods during or after treatment with the peptide. Splenocytes and lymph node cells (LNC) were harvested and incubated (5×10^6/ml) in the presence of the 16/6Id. Supernatants were collected after 48 and 72 h. Assessment of Cytokines in the Supernatants. Supernatants were collected 48 hours following the initiation of the cultures and stored at −70° C. Measurements of IL-2, IL-10, IFN-γ, and TNF-α were performed by ELISA by using the relevant standards, capture and detecting Abs (Pharmingen) according to the manufacturer's instructions. TGF-β was determined by an ELISA. Briefly, plates were coated with the recombinant human TGF-β1 sRIII/Fc chimera (R & D Systems Inc., Minneapolis, Minn., USA), and the second Ab used was the biotinylated anti-human TGF-β1 antibody (R & D Systems Inc.). The substrate solution used was TMB color Reagent (Helix Diagnostics, West Sacramento, Calif.), and enzyme activity was evaluated by using 570- and 630-nm filters. Detection of SLE-Associated Clinical and Pathological Manifestations. Proteinuria was measured semiquantitatively by using Combistix kit (Ames Division, Bayer Diagnostics, Newbury, U.K.). White blood cells (WBC, for leukopenia) were counted after a 10-fold dilution of heparinized blood in distilled water containing 1% acetic acid (vol/vol). […]
# [1] = system: lymph node cultures of BALB/c mice; test: Cytokines in supernatants of 16/6Id-stimulated lymph node cultures of BALB/c mice with experimental SLE; conditions: after 10 treatment injections
# Experimental: as §1, with “A S.I.≧2 was considered a positive response (Dayan et al., 2000). Inhibition (the ratio of mean CPM in the presence of the 16/6Id and various CDR-based peptides to the mean CPM with the 16/6Id without the CDR-based peptide) above 50% was considered positive. Induction of Cytokine Production. Mice that were immunized with the human 16/6Id mAb and either treated or not with the CDR-based peptide, were killed at different periods during or after treatment with the peptide. Splenocytes and lymph node cells (LNC) were harvested and incubated (5×10^6/ml) in the presence of the 16/6Id. Supernatants were collected after 48 and 72 h. Assessment of Cytokines in the Supernatants. Supernatants were collected 48 hours following the initiation of the cultures and stored at −70° C. Measurements of IL-2, IL-10, IFN-γ, and TNF-α were performed by ELISA by using the relevant standards, capture and detecting Abs (Pharmingen) according to the manufacturer's instructions.” left out, “Briefly, plates were coated with the recombinant human TGF-β1 sRIII/Fc chimera (R & D Systems Inc., Minneapolis, Minn., USA), and the second Ab used was the biotinylated anti-human TGF-β1 antibody (R & D Systems Inc.).” left out, “Detection of SLE-Associated Clinical and Pathological Manifestations.” left out
# BALB/c mice = test: Treatment of 16/6Id-induced experimental SLE in BALB/c mice; conditions: for mice with immune complex deposits in kidneys: 7 months after booster, untreated 9/10; for Anti-dsDNA O.D. (1:50), Mean ± SD: 16/6Id injected 1.1 ± 0.6; for Anti-dsDNA antibodies at a dilution of: 1:250, Mean ± SD: 16/6Id alone 1.16 ± 0.37; for Intensity of ICD In kidneys, Mean ± SD: 16/6Id alone 1.86 ± 0.38; for Anti-16/6 Id antibodies at a dilution of 1:1000, Mean ± SD: 16/6Id alone 2.55 ± 0.09; for Anti-dsDNA antibodies 1:1250, Mean ± SD: 16/6Id alone 0.47 ± 0.3; for Anti-16/6 Id antibodies 1:10000, Mean ± SD: 16/6Id alone 0.89 ± 0.1; for Intensity of ICD in kidneys, Mean ± SD: 16/6Id alone 1.6 ± 0.55
# Experimental: as §1
# [2] = age 7 months, 10 weeks, 100 μg/mouse or 300 μg/mouse
# [3] = Table 11, 200 μg/mouse for 10 weeks
# [4] = Table 11, 300 μg/mouse for 10 weeks
# [5] = Table 11, 400 μg/mouse for 10 weeks
sequence,measurement,setting,value
"GYYWSWIRQPPGKGEEWIG (Human) [hCDR1, 19-mer peptide based on the CDR1 of the heavy chain of the human 16/6Id mAb]",anti-dsDNA autoantibody O.D. values,(NZB×NZW)F1 mice; 50 μg/mouse s.c. weekly for 10 weeks from age 5 and a half months,0.27±0.1 O.D.
same,number and intensity of immune complexes in kidney sections,"(NZB×NZW)F1 mice; 100 μg dose, mice sacrificed at 9 months, FIGS. 11A-11D",reduced the number of immune complexes as well as their intensity
same,anti-dsDNA autoantibody O.D. values,(NZB×NZW)F1 mice; 100 μg/mouse s.c. weekly for 10 weeks from age 5 and a half months,0.37±0.1 O.D.
same,anti-dsDNA autoantibody O.D. values,(NZB×NZW)F1 mice; 200 μg/mouse s.c. weekly for 10 weeks from age 5 and a half months,0.29±0.1 O.D.
same,Proteinuria g/L ± SEM,"(NZB×NZW)F1 mice; 300 μg/mouse s.c. weekly for 10 weeks at the age of 7 months, untreated 4.80 ± 2.56",1.08 ± 0.38 g/L
same,Proteinuria g/L ± SEM,"(NZB×NZW)F1 mice; 300 μg/mouse, age 7 months, following treatment No 5, untreated 2.65 ± 1.76",0.61 ± 0.23 g/L
same,Proteinuria g/L ± SEM,"(NZB×NZW)F1 mice; 300 μg/mouse, age 7 months, following treatment No 7, untreated 3.89 ± 2.73",0.65 ± 0.32 g/L
same,Proteinuria g/L ± SEM,"(NZB×NZW)F1 mice; 300 μg/mouse, age 7 months, following treatment No 9, untreated 7.55 ± 3.95",1.02 ± 0.39 g/L
same,Immune Complex Deposits ± SEM,"(NZB×NZW)F1 mice; 300 μg/mouse, age 7 months, intensity 0=no ICD to 3=severe and extremely intense ICD, untreated 2.57 ± 0.29, p = 0.035",1.44 ± 0.41
same,Proteinuria g/L ± SEM,"(NZB×NZW)F1 mice; 400 μg/mouse at the age of 6 months, untreated 4.99 ± 2.53",0.77 ± 0.32 g/L
same,Immune Complex Deposits ± SEM,"(NZB×NZW)F1 mice; 400 μg/mouse, age 6 months, intensity score 0-3, untreated 2 ± 0.29, p = 0.05",1.42 ± 0.19
same,anti-DNA antibody titers in sera,"(NZB×NZW)F1 mice; 7-month old mice, 300 μg s.c. weekly for 10 weeks",mild reduction
same,anti-dsDNA autoantibody titers,"(NZB×NZW)F1 mice; 50, 100 and 200 μg/mouse s.c. weekly for 10 weeks from age 5 and a half months",moderate reduction
same,anti-DNA autoantibody titers,(NZB×NZW)F1 mice; [2],moderate reduction
same,proteinuria in comparison to the PBS-treated group,(NZB×NZW)F1 mice; [2],reduction
same,kidney disease,"(NZB×NZW)F1 mice; age 7 months, 10 weeks, 100 or 300 μg/mouse, more significant effect with 300 μg",ameliorated
same,kidney disease,"(NZB×NZW)F1 mice; ten-week treatment, 50 μg dose less efficient than 100 and 200 μg",reduced significantly
same,levels of TGF-β,"[1]; FIG. 15D, 15E (spleen cells)",up-regulated
same,INF-γ in supernatants of 16/6Id stimulated lymph node cultures,"[1]; both doses (200 and 300 μg), FIG. 15A",down regulated
same,TNF-α in supernatants of 16/6Id stimulated lymph node cultures,"[1]; both doses (200 and 300 μg), FIG. 15B",down regulated
same,IL-10 in supernatants of 16/6Id stimulated lymph node cultures,"[1]; both doses (200 and 300 μg), FIG. 15C",down regulated
same,mice with immune complex deposits in kidneys,BALB/c mice; 100 μg/mouse,3/10
same,mice with immune complex deposits in kidneys,BALB/c mice; 300 μg/mouse for 10 weeks,2/9
same,"Proteinuria g/l, Mean ± SD","BALB/c mice; Table 10, 100 μg, end of treatment, 16/6Id injected 0.65 ± 0.36",0.3 ± 0.02 g/L
same,"Anti-dsDNA O.D. (1:50), Mean ± SD","BALB/c mice; Table 10, 100 μg, end of treatment",0.3 ± 0.2 O.D.
same,"WBC/mm^3, Mean ± SD","BALB/c mice; Table 10, 100 μg, end of treatment, 16/6Id injected 3260 ± 920",6090 ± 2160 /mm^3
same,"Proteinuria g/l, Mean ± SD","BALB/c mice; Table 10, 300 μg, end of treatment, 16/6Id injected 0.65 ± 0.36",0.34 ± 0.25 g/L
same,"Anti-dsDNA O.D. (1:50), Mean ± SD","BALB/c mice; Table 10, 300 μg, end of treatment",0.55 ± 0.3 O.D.
same,"WBC/mm^3, Mean ± SD","BALB/c mice; Table 10, 300 μg, end of treatment, 16/6Id injected 3260 ± 920",5890 ± 2660 /mm^3
same,"Proteinuria g/l, Mean ± SD","BALB/c mice; Table 11, 200 μg/mouse for 10 weeks, 16/6Id alone 0.5 ± 0.34",0.13 ± 0.16 g/L
same,"Anti-dsDNA antibodies at a dilution of: 1:250, Mean ± SD",BALB/c mice; [3],0.69 ± 0.39
same,"Intensity of ICD In kidneys, Mean ± SD",BALB/c mice; [3],0.57 ± 0.97
same,"Anti-16/6 Id antibodies at a dilution of 1:1000, Mean ± SD",BALB/c mice; [3],2.7 ± 0.12
same,"WBC/mm^3, Mean ± SD","BALB/c mice; Table 11, 200 μg/mouse for 10 weeks, 16/6Id alone 2871 ± 1205",5625 ± 1659 /mm^3
same,"Proteinuria g/l, Mean ± SD","BALB/c mice; Table 11, 300 μg/mouse for 10 weeks, 16/6Id alone 0.5 ± 0.34",0.16 ± 0.16 g/L
same,"Anti-dsDNA antibodies at a dilution of: 1:250, Mean ± SD",BALB/c mice; [4],0.45 ± 0.24
same,"Intensity of ICD In kidneys, Mean ± SD",BALB/c mice; [4],0.75 ± 0.71
same,"Anti-16/6 Id antibodies at a dilution of 1:1000, Mean ± SD",BALB/c mice; [4],2.8 ± 0.11
same,"WBC/mm^3, Mean ± SD","BALB/c mice; Table 11, 300 μg/mouse for 10 weeks, 16/6Id alone 2871 ± 1205",4677 ± 1508 /mm^3
same,"Proteinuria g/l, Mean ± SD","BALB/c mice; Table 11, 400 μg/mouse for 10 weeks, 16/6Id alone 0.5 ± 0.34",0.11 ± 0.15 g/L
same,"Anti-dsDNA antibodies at a dilution of: 1:250, Mean ± SD",BALB/c mice; [5],0.8 ± 0.39
same,"Intensity of ICD In kidneys, Mean ± SD",BALB/c mice; [5],0.71 ± 0.76
same,"Anti-16/6 Id antibodies at a dilution of 1:1000, Mean ± SD",BALB/c mice; [5],2.75 ± 0.1
same,"WBC/mm^3, Mean ± SD","BALB/c mice; Table 11, 400 μg/mouse for 10 weeks, 16/6Id alone 2871 ± 1205",4012 ± 1421 /mm^3
same,"Anti-dsDNA antibodies 1:1250, Mean ± SD","BALB/c mice; Table 12, 200 μg/mouse weekly",0.23 ± 0.1
same,"Proteinuria g/l, Mean ± SD","BALB/c mice; Table 12, 200 μg/mouse weekly, 16/6Id alone 0.58 ± 0.34",0.17 ± 0.15 g/L
same,"Anti-16/6 Id antibodies 1:10000, Mean ± SD","BALB/c mice; Table 12, 200 μg/mouse weekly",0.96 ± 0.2
same,"Intensity of ICD in kidneys, Mean ± SD","BALB/c mice; Table 12, 200 μg/mouse weekly",1 ± 0.63
same,"WBC/mm^3, Mean ± SD","BALB/c mice; Table 12, 200 μg/mouse weekly, 16/6Id alone 2800 ± 300",4900 ± 800 /mm^3
same,"Anti-dsDNA antibodies 1:1250, Mean ± SD","BALB/c mice; Table 12, 300 μg/mouse weekly",0.2 ± 0.1
same,"Proteinuria g/l, Mean ± SD","BALB/c mice; Table 12, 300 μg/mouse weekly, 16/6Id alone 0.58 ± 0.34",0.085 ± 0.01 g/L
same,"Anti-16/6 Id antibodies 1:10000, Mean ± SD","BALB/c mice; Table 12, 300 μg/mouse weekly",0.93 ± 0.1
same,"Intensity of ICD in kidneys, Mean ± SD","BALB/c mice; Table 12, 300 μg/mouse weekly",0.5 ± 0.5
same,"WBC/mm^3, Mean ± SD","BALB/c mice; Table 12, 300 μg/mouse weekly, 16/6Id alone 2800 ± 300",5800 ± 300 /mm^3

# From US7858738B2, “Synthetic human peptides and pharmaceutical compositions comprising them for the treatment of systemic lupus erythematosus” (Yeda Research and Development Co., Ltd., priority 2001, dated 2010)
